Consider 86 compounds from a melting point compilation (Tetko et al.; mined from patent text by program, amines drawn as free bases though some values may be those of a salt).

`C=Cc1ccc(-c2ccc3c4ccc5c6c(ccc(c7cccc2c73)c64)C(=O)N(c2c(C(C)C)cccc2C(C)C)C5=O)cc1` gave a melting point greater than 300 °C. The result for `CCC1(O)CCC2(C)C(CCC3C4CCC(C(C)=O)C4(C)CC(=O)C32)C1` (stereo unspecified) reads 129 °C; that for `COCCOc1ccc(COC(=O)NS(=O)(=O)c2ccc(Cl)cc2)c(Oc2ncc(C(F)(F)F)cc2Cl)c1`, 112 to 115 °C. As for `CC(C)Cn1c(=O)n(C)c(=O)c2c(Sc3ccccn3)c(Cc3cccc4ccccc34)sc21`, the melting point fell in the range of 148 to 149 °C. `Fc1ccc(C(c2ccc(F)cc2)C2CCN(CCCOc3c(Cl)cccc3Cl)CC2)cc1`: the melting point was in the range of 102 to 103 °C. In the case of `CCCCc1c2c(nn1C(C)(C)C)c(N)nc1ccccc12` it was 222 to 223 °C; in that of `CC(C)(C)OC(=O)c1ccccc1CNC(=O)C1Cc2ccccc2N1S(=O)(=O)c1ccc(-c2cccc(C(F)(F)F)c2)cc1` (stereo unspecified), 68 °C; in that of `CCc1ccc2c(Cc3nc4c(F)c(F)cc(F)c4s3)cn(CC(=O)O)c2n1`, 155 to 157 °C. The compound `COc1ccc(Nc2nc(O)c3sccc3n2)c(C)c1` gave a melting point of 246 to 248 °C. Regarding `O=C(O)c1cc(-c2ccc3c(c2)CCO3)nn(CC=Cc2ccc(Cl)cc2)c1=O`, the melting point lay within 177 to 181 °C. The result for `Cc1ccccc1CC(=NC#N)NC(NC(=O)Cc1cccnc1)C(C)(C)C` (stereo unspecified) reads 84 to 86 °C. The compound `Cn1c(CC#N)ccc1C(=O)c1ccc(Br)cc1` returned a melting point of 139 to 141 °C. Turning to `COc1cc(C(=O)NNC(=O)c2occ(-c3ccccc3)c2-c2ccccc2)ccc1OCc1ccccc1`, the melting point was in the range of 203 to 204 °C. The result for `CN(C(=O)CCN)c1nnc(-c2cccnc2)s1` reads 110 to 112 °C.

`CC(=O)OC1CSC(Oc2cnc(Cl)c(Cl)c2)C(OC(C)=O)C1OC(C)=O` (stereo unspecified) gave a melting point of 128 °C. The result for `O=S1(=O)CCCSC(S)=N1` reads 134 °C. `COc1cc(C2CC(=O)NC(=O)C2)cc2c(C)c(C)oc12` showed a melting point of 220 to 222 °C. As to `Cc1ccc(CCOc2ccc(CC3SC(=O)NC3=O)cc2)nc1` (stereo unspecified), the melting point was 192 to 193 °C.

The compound `Cc1nnc(C)n1-c1ccc(C#N)cc1` returned a melting point greater than 230 °C. `O=[N+]([O-])c1ccc(Oc2ccccc2Oc2ccc([N+](=O)[O-])c(O)c2)cc1O`: the melting point is 178 to 180 °C. Turning to `CCCCCCCCc1sc(NC(=O)c2cc3cc(C)cc(C)c3n2Cc2cccc(C(=O)O)c2)nc1-c1cc(OC)c(Cl)cc1OC`, the melting point lay in the range of 195 to 197 °C. The result for `CN1CCN(c2nccc(Oc3ccc(NC(=O)c4cc(F)cc(N5CCCCC5)c4)c4ccccc34)n2)CC1` reads 182 to 184 °C.

Turning to `O=C(c1ccc(Cl)cc1)c1c(N2C(=O)c3ccccc3C2=O)sc(Br)c1CN1CCN(c2ccccc2)CC1`, the melting point lay within 186 to 193 °C. The result for `CCOCc1nc2c(N)nc3cc(OCc4cccc(C)c4)ccc3c2n1CC(C)(C)NS(C)(=O)=O` reads 252 to 254 °C; that for `COc1ccnc(CCc2nc3cc(Br)cnc3[nH]2)c1`, 207 to 209 °C; that for `COC(=O)c1c(Cc2ccc(C(=O)CBr)cc2)c(=O)c2ccc(C)nc2n1-c1ccccc1`, 189 to 191 °C. In the case of `COc1ccc2c(c1)C(n1cc[nH]c1=S)CCC2` (stereo unspecified) it was 142 to 143 °C; in that of `OC[C@H]1CCCN1c1cc(N2CCc3ccccc3C2)c2ccccc2n1`, 74 to 80 °C. The result for `COC(=O)c1ccc(C(=O)Nc2ccc3c(c2)C(C)(C)CCC3(C)C)cc1` reads 211 °C. Compound `CC(=O)SCC(C)C(=O)N(C(C)C(=O)O)C1CCc2ccccc21` (stereo unspecified) gave a melting point of 133 to 137 °C. In turn, `Cc1c(-c2ccccc2)n(-c2ccccc2Cl)c(-c2ccccc2)cc1=S` yielded a melting point of 271 to 275 °C. The compound `CC1(C)OC(=O)Nc2ccc(-c3ccccc3F)cc21` had a melting point of 164 to 165 °C. The result for `Cc1cc(C)c(N2CCCCC2)cc1NS(=O)(=O)C(F)(F)F` reads 92 to 94 °C; that for `CC(C)CCSc1cc(C(=O)O)cc(S(N)(=O)=O)c1-c1ccccc1`, 70 to 74 °C. Take `CCOC(=O)CC(NS(=O)(=O)c1cccc(-c2cccc(NC(=NC#N)NC3CC3)c2)c1)c1ccccc1` (stereo unspecified): the melting point is 82 °C.

For `CC#CCOc1ccc(S(=O)(=O)NC2(C(=O)O)CCCC2)cc1`, the melting point was 108 to 110 °C. In the case of `COC(=O)c1ccc(C(=O)CC(=O)c2ccc3c(c2)C(C)(C)CCC3(C)C)cc1` it was 128 °C.

`CCCCCCCCCCCCCCCCCCOCC(COC1CCCCO1)NC(C)=O` (stereo unspecified): the melting point fell in the range of 52 to 55 °C. The result for `Cc1ccc(-c2cc(CO)c3[nH]c(=O)ccc3c2)c(C)n1` reads 218 to 221 °C. The result for `O=c1c2[nH]c(C(C3CC3)C3CC3)nc2n(C2CC2)c(=O)n1C1CC1` reads 197 to 198 °C; that for `Cc1ccccc1NC(=O)N(C)C`, 139 to 143 °C. `Cn1ccnc1SCOC(=O)C(C)(C)C` yielded a melting point of 128 to 132 °C. Regarding `CN1CC(CCN2CCC(c3c[nH]c4ccccc34)CC2)C=C2c3cccc4[nH]cc(c34)CC21` (stereo unspecified), the melting point lay within 184 to 187 °C.

`O=C(O)C=C1COc2ccccc2C1=O` registered a melting point of 134 to 136 °C.

With `COc1ccc(S(=O)(=O)C(CCCCc2ccccc2)(CC(=O)O)c2ccccc2)cc1` (stereo unspecified), the melting point was 75 to 78 °C. The result for `CCOC(=O)C1=Nc2cc3c(c(C)c2=C1C)N=c1ccc(C#N)cc1=3` reads greater than 240 °C. As for `CC(C(=O)N(C)O)c1ccc(-c2ccccc2)c(F)c1` (stereo unspecified), the melting point is 125 to 126 °C. With `COCCOc1cc2ncnc(Oc3ccc(Cl)cc3F)c2cc1OC`, the melting point was 167 to 168 °C.

With `NC(N)=Nc1nc(N2CCOCC2)nc2c1ccc1ccccc12`, the melting point worked out at 235 °C. In the case of `CN1CCC(C2=CC(=O)CCC2)C1=O` (stereo unspecified) it was 42 to 46 °C; in that of `N#Cc1nn(-c2ccccc2)c(OC(F)F)c1CO`, 71 to 72 °C; in that of `CC(C)(Oc1ccc(C#N)cc1)C(O)Cc1ccncn1` (stereo unspecified), 96 to 98 °C. In the case of `Cc1nccc2c1[nH]c1cc(OCc3ccccc3)ccc12` it was 212 °C. The result for `CS(=O)(=O)OCC1CCN(C(=O)c2ccccc2)CC1` reads 87 to 90 °C; that for `CC1=C(CCOC(=O)C(C)(C)C)C2=C(O)N(I)CN(CCOC(=O)C(C)(C)C)C2=N1`, 155 °C; that for `CCOCOC1(C(=O)CO)C(C)CC2C3CC(C)C4=CC(=O)C=CC4(C)C3C(O)CC21C` (stereo unspecified), 100 to 102 °C. In the case of `CCCSc1ccc(C(=O)OC)nc1`, the melting point was 33 to 35 °C. `CCOC(=O)c1c(CBr)cccc1S(N)(=O)=O` displayed a melting point of 138 to 140 °C. The result for `COc1cc2c(c3c1OC(C)(C)C3)C(c1cccc(C(=O)NC(C)(C)C(N)=O)c1)=NC(C)(C)C2` reads 129 to 131 °C. As for `COC(=O)c1nc(CN=[N+]=[N-])n2c1CN=C(c1ccccc1Cl)c1cc(Cl)ccc1-2`, the melting point is 187 to 189 °C. The result for `COc1nc2cc(Cl)c(Cl)c(C#Cc3ccccc3)c2nc1OC` reads 170 to 172 °C; that for `CN1CCN(Cn2cncc2-c2cc3c(Nc4ccc5[nH]ccc5c4)c(C#N)cnc3s2)CC1`, greater than 245 °C. The compound `CCOC(=O)c1cc(=O)c2c(OCC(O)COc3cccc(O)c3C(C)=O)cccc2o1` (stereo unspecified) yielded a melting point of 145 to 148 °C. In the case of `CN(Cc1ccccc1)C(=O)Nc1ccc(CN2C(=O)C3CCCC3N(C(=O)CN3C(=O)c4ccccc4C3=O)c3ccccc32)cc1` (stereo unspecified), the melting point was in the range of 156 to 158 °C. Compound `CNC(SC)=C(C#N)C#N` returned a melting point of 119 to 120 °C. In the case of `CNCCCNC(=O)[C@@H]1CCCN1S(=O)(=O)c1ccc(Cl)c(COc2cccc3c(C)cc(C)nc23)c1Cl` it was 85 °C; in that of `CC(C)(C)OC(=O)Nc1ccsc1C(=O)O`, 168 to 169 °C.

`CC(C)(C)c1ccc(C(=O)Nc2cc(OCCCO/N=C/c3cn(Cc4ccccc4)c4ccccc34)ccc2C(=O)O)cc1` had a melting point of 181 to 182 °C. For `COc1cc(-c2nc(-c3ccc(N(C)C)cc3)c(C)[nH]2)cc(OC)c1OP(=O)(O)O`, the melting point was in the range of 196 to 198 °C. In the case of `O=C(O)c1cc(NCc2ccccc2)ccc1O` it was 174 °C. `O=C1CCN(C(=S)Nc2ccc(Cl)cc2)N1c1ccc(Cl)cc1` yielded a melting point of 121 to 124 °C. Consider `Cn1cc(-c2ccc(Oc3ccc(F)cc3F)cc2)nc1C(N)=O`, for which the melting point was 183 to 187 °C. In the case of `N#CCC(=O)NCc1cccc(Cl)c1` it was 123 to 125 °C. The result for `COc1ccc(C(=O)Nc2ccccc2)cc1Nc1cc(C)cc(C)c1` reads 198 to 199 °C. In the case of `C(=C\c1nc(COc2ccc(CCCn3ccnc3)cc2)co1)/c1ccco1`, the melting point fell in the range of 122 to 123 °C. In the case of `Cc1nc2c(s1)-c1nc(N(C)c3cccc([N+](=O)[O-])c3)ncc1CC2` it was 203 to 204 °C; in that of `c1ccc(-c2ccc3cc(COc4ccc(CCCn5ccnc5)cc4)cnc3c2)cc1`, 135 to 136 °C; in that of `Cc1ccc(S(=O)(=O)N2CCCC(S(=O)(=O)c3ccc(Cl)cc3)C2)cc1` (stereo unspecified), 186 to 187 °C. The result for `NCCCCCCCNC(=O)COCC(=O)NC1CCC2C3Cc4ccccc4C2(CCN3)C1` (stereo unspecified) reads 83 to 85 °C; that for `CC(=O)OCc1ccc2oc(=O)c(C(=O)Oc3cc([N+](=O)[O-])ccc3[N+](=O)[O-])cc2c1`, 162 to 164 °C; that for `CCCCCCCCCCCCCCCCCCOC(=O)c1cccc(NC(=O)NS(=O)(=O)c2ccc(C)cc2)c1`, 96 °C. `CN(C)C(=O)C1(n2ccc(-c3ccccc3)n2)CC1`: the melting point is 96 to 99 °C.

`O=c1c2cc(C=NO)ccc2oc2ncccc12` yielded a melting point of 254 to 256 °C. The result for `CCOC(=O)c1snc(OCC)c1Br` reads 40 to 43 °C.

Compound `C1=C2NCCCN2C(c2ccccc2)c2ccccc2C1` (stereo unspecified) showed a melting point of 138 to 141 °C. The result for `CN1CCN(c2ccc3c(c2)NC(=O)C(C)(c2ccc([N+](=O)[O-])cc2)C3=O)CC1` (stereo unspecified) reads 150 to 151 °C.
